“And” between values parts separate entries of the source, which are not always exact repeats. Identical values can stand only once.
Legend:
[1] = test system: Taxol model of neuropathic pain; assay: Taxol animal model for neuropathic pain in mice; assay type: in vivo
Excerpt: (§1) Table 7 summarizes the activity of Formula 1 in mice models of neuropathic pain following repeated daily administration using different routes of administration.

[2] = test system: CCl model of neuropathic pain; assay: CCl animal model for neuropathic pain in mice; assay type: in vivo; settings: SC, 150 mg/kg, repeated daily administration
Excerpt: as §1

[3] = PO, 30 mg/kg, repeated daily administration
[4] = SC, doses tested 1, 3, 10 mg/kg, repeated daily administration

What does the source list for `CC(C)(C)C(=O)O[C@@H]1C2[C@H]3C[C@H](C[C@@H]1N3CC1CC1)CN2C(=O)CC(F)(F)F` (stereo partly drawn) [Formula 1, (2S,3S,6R,7aR)-1-(cyclopropylmethyl)-4-(3,3,3-trifluoropropanoyl)octahydro-1H-2,6-methanopyrrolo[3,2-b]pyridin-3-yl pivalate]?
Duration of activity at maximum effect [1, 3]: 3 days; Level of activity (% of maximum effect-baseline) [1, 3]: 100%; Peak of activity (T) [1, 3]: 1-24 H; Dose of maximum activity ([1]; PO, dose tested 30 mg/kg): <30 mg/kg; Dose of maximum activity ([1]; SC, doses tested 1, 3, 10 mg/kg): 1 mg/kg; Duration of activity at maximum effect [1, 4]: 3 days; Level of activity (% of maximum effect-baseline) [1, 4]: 100%

With `NCC1(CC(=O)O)CCCCC1` [Gabapentin] as the compound, how does the “Duration of activity at maximum effect” value [2] read?
Its value is 4-6 H.

What about the “Level of activity (% of maximum effect-baseline)” value [2] of the same compound?
The value was >100% and 64%.

And the “Peak of activity (T)” value [2]?
Its value is 2-3 H.
